The values that follow are results of earlier work, collected in US20060281913A1, “Process for the production of crystalline xylose from sugar cane bagasse, crystalline xylose obtained by said process, process for the production of xylitol from the said xylose and crystalline xylitol obtained thereby” (priority 2003, published 2006).

Each structure is given as a SMILES string. Read-outs that look alike come from different tables or passages of the source.

For data set [1] the following is noted: relative to sucrose.

For the compound `OC[C@@H](O)[C@H](O)[C@@H](O)CO` [crystalline xylitol, xylitol], the “solubility in methanol, ethanol and isopropanol” value is “low solubility”; the solubility in water result was “high solubility”. Moreover, the sweetening power result in data set [1] (in words) was “equivalent to that of sucrose”.
Turning to `O=C[C@H](O)[C@@H](O)[C@H](O)CO` [crystalline xylose, xylose], the “solubility in methanol, ethanol and isopropanol” value was “sparingly soluble”; the solubility in water entry is reported as “highly soluble”. The sweetening power in data set [1] (data collected from the literature) was ~67 % that of sucrose.
